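Growth conditions: 96-well plates. Treatment: test compound, 48 hours, 5 concentrations. Analysis: linear interpolation between bracketing concentrations; unreached endpoints set to highest concentration. Here, GI50 denotes the concentration required for 50% inhibition of growth. TGI: concentration producing complete growth inhibition.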 Where a SMILES comes first, the peptide text is derived from it. [ ]: non-standard residue; d: D form. The star is where a group is joined. Lauroyl = CCCCCCCCCCCC(=O)*; Aib = CC(C)(N)C(=O)O; βAla = NCCC(=O)O
These molecules were tested on MDA-MB-468 breast (assay: growth of human tumour cells (NCI), 48 h).
For `Cc1ccc(SC2c3ccc(C)cc3Oc3nc(N)c(C#N)c(N)c32)cc1` (stereo not drawn), the GI50 was 1.77 µM and the TGI was 3.74 µM. Work on `Cc1cc(Cl)cc(OCCn2cc(F)cn2)c1-c1nc(N)nc2c1CN(C(=O)NCC(C)(F)F)C2` yielded a GI50 of 0.0361 µM and a TGI of 3.13 µM. For `CN1CCN(C2CCN(C(=O)Nc3cc(Oc4ccc(NC(=O)C5(C(=O)Nc6ccc(F)cc6)CC5)c(F)c4)ccn3)CC2)CC1`, the GI50 was 1.03 µM and the TGI was greater than 2.41 µM. For `Cc1cc(C)c2c(n1)sc1c(Nc3ccc(Cl)cc3)ncnc12`, the GI50 was 0.0218 µM and the TGI was 27 µM. Molecule `CCCCCCCCCCCC(=O)NC(C)(C)C(=O)N1CCCC1C(=O)NC(C)(C)C(=O)NC(C)(C)C(=O)N1CCCC1C(=O)NC(C)(C)C(=O)NC(C)(C)C(=O)N1CCCC1C(=O)NC(C)C(=O)NCCC(=O)NC(C)C(=O)NC(C)(C)C(=O)NC(C)(C)C(=O)NC(C)(C)C(=O)NCCC(=O)NC(C)(C)C(=O)NC(C)(C)C(=O)NC(C)(C)C(=O)NC(C)C(=O)NCCC(=O)O` (stereo not drawn) (Lauroyl-[Aib]P[Aib][Aib]P[Aib][Aib]PA[βAla]A[Aib][Aib][Aib][βAla][Aib][Aib][Aib]A[βAla]-OH; configuration not given here) has a GI50 of 0.328 µM and a TGI of 0.739 µM. For `CC/C=C\C[C@H](O)C/C=C1/C(=O)C(Cl)=C[C@@H]1C/C=C\CCCC(=O)OC`, the GI50 was 0.554 µM and the TGI was 3.06 µM. With `Oc1ccc(Nc2ncnc3c2sc2ncccc23)cc1` the GI50 was 0.0751 µM and the TGI was 21 µM. In the case of `COC(=O)c1ccc2c(c1)nc(NC(=O)c1ccccc1)n2CCCc1ccccc1`, the GI50 is reported as 3.05 µM and the TGI is reported as greater than 80 µM. `COc1cccc(F)c1C(=O)c1cnc(NC2CCN(S(C)(=O)=O)CC2)nc1N` gave a GI50 of 3.75 µM and a TGI of 9.91 µM. `COc1cc(OCc2cccc(-c3ccc(C(O)c4nccs4)cc3)c2C)cc(OC)c1C=O` (stereo not drawn) showed a GI50 of 0.267 µM and a TGI of 2.51 µM. Molecule `COc1ccc(/C=C\[N+](=O)[O-])cc1OC` has a GI50 of 3.05 µM and a TGI of 11.3 µM. In the case of `CC1(C)N=C(N)N=C(N)N1c1ccc(CCCCc2ccc(Cl)cc2S(=O)(=O)F)c(Cl)c1`, the GI50 is reported as 0.569 µM and the TGI is reported as 5.87 µM. `c1ccc(-c2nnc(-c3ccccn3)s2)nc1` gave a GI50 of 9.76 µM and a TGI greater than 100 µM. In the case of `Cn1c(I)c(C#CCO[Si](C)(C)C(C)(C)C)c(=O)[nH]c1=O`, the GI50 is reported as 1.88 µM and the TGI is reported as 4.33 µM. In the case of `CC1(C)[C@@H](O)CC[C@]2(C)[C@H]3CC[C@@H]4[C@H]5[C@H](C(=O)/C=C\c6ccccn6)CC[C@]5(O)CC[C@@]4(C)[C@]3(C)CC[C@@H]12`, the GI50 is reported as 1.4 µM and the TGI is reported as 3.96 µM. With `Cn1cc(C2=C(c3ccc(N)cc3)C(=O)NC2=O)c2ccccc21` the GI50 was 7.84 µM and the TGI was greater than 25 µM. For `CCOC(=O)C1=CN(C)C=C(C(=O)OCC)C1c1cc(Br)c(OCC)c(OC)c1`, the GI50 was greater than 100 µM and the TGI was greater than 100 µM. `NC(=S)N/N=C/C(=O)O` showed a GI50 of 23.9 µM and a TGI greater than 100 µM. In the case of `COc1ccc(OC)c2c1[nH]c(=O)c1c3ccccc3cn21`, the GI50 is reported as 1.08 µM and the TGI is reported as 2.55 µM. For `COC(=O)C[C@](O)(CCCC(C)(C)O)C(=O)O[C@@H]1C(OC)=C[C@]23CCCN2CCc2cc4c(cc2[C@H]13)OCO4`, the GI50 was 0.0102 µM and the TGI was 0.0367 µM. In the case of `CC(=O)Nc1ccc(S(=O)(=O)N2C(=O)CCC2C(=O)Nc2ccc(Br)cc2)cc1` (stereo not drawn), the GI50 is reported as 1.02 µM and the TGI is reported as 5.55 µM. With `Nc1ccc([N+](=O)[O-])cc1N=C/C=C/c1ccccc1` the GI50 was 4.68 µM and the TGI was 43 µM. `N#Cc1c(NC(=O)NCc2ccccc2)sc2c1CCCCC2` gave a GI50 of 0.317 µM and a TGI of 3.52 µM. `O=C(Nc1ccc(Br)cc1F)c1cc(F)ccc1O` was tested, and the GI50 was 1.13 µM and the TGI was 4.92 µM. In the case of `C[N+](C)(C)CC1CCCc2ccccc2C1=O` (stereo not drawn), the GI50 is reported as 1.91 µM and the TGI is reported as 3.76 µM. `Nc1nn2cc(F)cnc2c1C(=O)Nc1cncc(F)c1N1CCC(C(=O)N2CCN(C3COC3)CC2)CC1` showed a GI50 of 0.165 µM and a TGI of 0.682 µM. Molecule `COc1ccc(Sc2[nH]c(C(C)=O)c3ccccc23)cc1` has a GI50 of 3.89 µM and a TGI of 41.4 µM. In the case of `C=C(C=O)[C@@H]1CC[C@]2(CO)CC[C@]3(C)[C@H](CC[C@@H]4[C@@]5(C)CCCNC(C)(C)[C@@H]5CC[C@]43C)[C@@H]12`, the GI50 is reported as 3.77 µM and the TGI is reported as 16.5 µM. `O=C(Nc1ccc(Nc2ccncc2)cc1)c1ccc([N+](=O)[O-])cc1` showed a GI50 of 1.75 µM and a TGI of 5.2 µM. In the case of `C#CCOc1cccc(-c2ncc3cc(NC(=O)CCl)ccc3n2)c1`, the GI50 is reported as 1.74 µM and the TGI is reported as 3.55 µM. With `CCCn1cnc2c(c1=N)C(c1ccc(Cl)cc1)c1sc3c(CC)cccc3c1O2` (stereo not drawn) the GI50 was 0.508 µM and the TGI was 4.14 µM. `CCN1CCN(C(=O)[C@@]2(C)CC[C@]3(C)CC[C@]4(C)C(=CC(=O)[C@@H]5[C@@]6(C)CC[C@H](OC7C[C@@H](O)[C@@H](O)C(C)O7)C(C)(C)[C@@H]6CC[C@]54C)[C@@H]3C2)CC1` (stereo partly drawn) gave a GI50 of 1.49 µM and a TGI of 6.17 µM. `NC(=O)/C=C/C(=O)c1c(Cl)cccc1Cl` was tested, and the GI50 was 0.292 µM and the TGI was 0.971 µM. With `CNCc1ccccc1-c1csc([C@@H](C)Nc2nc(C)nc3cc(OC)c(OC)cc23)c1` the GI50 was 1.1 µM and the TGI was 2.59 µM. In the case of `COc1cccc(CC(C)=C(c2ccc(OCCN(C)C)cc2)c2ccc(OCCN(C)C)cc2)c1`, the GI50 is reported as 1.16 µM and the TGI is reported as 5.26 µM. Molecule `CCN(CC)CCC(CNc1ccnc2cc(Cl)ccc12)c1ccc(Cl)cc1` (stereo not drawn) has a GI50 of 0.413 µM and a TGI of 1.52 µM. For `O=C(O)COc1ccc2c(=O)c3sc4c(=O)c5ccccc5c(=O)c4c3c(=O)c2c1`, the GI50 was 14.9 µM and the TGI was 35.4 µM. Work on `COc1ccccc1/C=N\N/C(N)=N\N=C\c1ccccc1OC` yielded a GI50 of 0.613 µM and a TGI greater than 45.7 µM. Work on `COc1cc(Nc2ncccc2C(=O)NCc2cn(Cc3cccc(Oc4ccccc4)c3)nn2)cc(OC)c1` yielded a GI50 of 2.42 µM and a TGI of 7.01 µM.

Source: PubChem BioAssay (NCI)
